Measurements from patent US20230143612A1 (Arbutus Biopharma Corporation, priority 2020, published 2023).

Target: PD-L1 His protein / PD-1 Fc protein (Homo sapiens, UniProt Q9NZQ7)
Experiment: HTRF Assay (PD-1/PD-L1 interaction)
Type: binding
Settings: PD-L1 His 6 nM, PD-1 Fc 6 nM
Method in brief: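 Compounds tested from 20 μM down to 0.001 μM (3-fold) against 6 nM PD-L1 His and 6 nM PD-1 Fc, 15 min room temperature incubation. Detection after 1 h at room temperature with Tb cryptate anti-6HIS and XL665 anti-human IgG reagents (mixture at 0.35 nM and 6.7 nM), HTRF signal.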

Sequence of PD-L1 His protein / PD-1 Fc protein (Q9NZQ7 19-238 limits assumed): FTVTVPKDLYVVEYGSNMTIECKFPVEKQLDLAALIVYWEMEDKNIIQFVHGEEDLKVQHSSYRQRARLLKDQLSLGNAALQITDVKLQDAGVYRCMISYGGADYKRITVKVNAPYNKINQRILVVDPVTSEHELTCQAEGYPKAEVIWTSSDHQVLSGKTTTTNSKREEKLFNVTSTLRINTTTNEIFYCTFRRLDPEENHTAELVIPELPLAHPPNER

| SMILES | IC50 [nM] |
| --- | --- |
| COc1nc(-c2cccc(-c3cccc(-c4ccn5c(=O)c(CN(C)C[C@@H]6CCC(=O)N6)cnc5c4)c3C)c2Cl)ccc1CN1CC(O)C1 [Example 55, (S)-8-(2′-Chloro-3′-(5-((3-hydroxyazetidin-1-yl)methyl)-6-methoxypyridin-2-yl)-2-methyl-[1,1′-biphenyl]-3-yl)-3-((methyl((5-oxopyrrolidin-2-yl)methyl)amino)methyl)-4H-pyrido[1,2-a]pyrimidin-4-one] | 43 |
| NC1(Cc2ccc(-c3cccc(-c4cccc(-c5ccn6c(=O)c(CNC[C@@H]7CCC(=O)N7)cnc6c5)c4Cl)c3Cl)cc2)CC1 [Example 237, (S)-8-(4″-((1-Aminocyclopropyl)methyl)-2,2′-dichloro-[1,1′:3′,1″-terphenyl]-3-yl)-3-((((5-oxopyrrolidin-2-yl)methyl)amino)methyl)-4H-pyrido[1,2-a]pyrimidin-4-one] | 900 |
| O=C1CC[C@@H](CNCc2ccc(-c3cccc(-c4cccc(-c5ccn6c(=O)c(CNC[C@@H]7CCC(=O)N7)cnc6c5)c4Cl)c3Cl)cc2OC(F)F)N1 [Example 110, 8-(2,2′-Dichloro-3″-(difluoromethoxy)-4″-(((((S)-5-oxopyrrolidin-2-yl)methyl)amino)methyl)-[1,1′:3′,1″-terphenyl]-3-yl)-3-(((((S)-5-oxopyrrolidin-2-yl)methyl)amino)methyl)-4H-pyrido[1,2-a]pyrimidin-4-one] | 2.4 |
| COc1nc(-c2cccc(-c3cccc(-c4cc(F)c(CNC[C@@H]5CCC(=O)N5)c(OC)n4)c3Cl)c2Cl)cc(F)c1CNC[C@@H]1CCC(=O)N1 [Example 236, (5S,5′S)-5,5′-(((((2,2′-dichloro-[1,1′-biphenyl]-3,3′-diyl)bis(4-fluoro-2-methoxypyridine-6,3-diyl))bis(methylene))bis(azanediyl))bis(methylene))bis(pyrrolidin-2-one)] | 1.2 |
| COc1nc(-c2cccc(-c3cccc(-c4cc(C)c5nc(CNC[C@@H]6CCC(=O)N6)cc(=O)n5c4)c3Cl)c2Cl)ccc1CNC[C@@H]1CCC(=O)N1 [Example 288, 7-(2,2′-Dichloro-3′-(6-methoxy-5-(((((S)-5-oxopyrrolidin-2-yl)methyl)amino)methyl)pyridin-2-yl)-[1,1′-biphenyl]-3-yl)-9-methyl-2-(((((S)-5-oxopyrrolidin-2-yl)methyl)amino)methyl)-4H-pyrido[1,2-a]pyrimidin-4-one] | 56 |
| COc1nc(-c2cccc(-c3cccc(-c4ccn5c(=O)c(CNC[C@@H](C)O)cnc5c4)c3Cl)c2Cl)ccc1CNC[C@H](C)O [Example 195, 8-(2,2′-Dichloro-3′-(5-((((S)-2-hydroxypropyl)amino)methyl)-6-methoxypyridin-2-yl)-[1,1′-biphenyl]-3-yl)-3-((((R)-2-hydroxypropyl)amino)methyl)-4H-pyrido[1,2-a]pyrimidin-4-one] | 2.5 |
| COC(=O)[C@H](CO)NCc1ccc(-c2cccc(-c3cccc(-c4ccn5c(=O)c(CNC[C@@H]6CCC(=O)N6)cnc5c4)c3Cl)c2Cl)nc1OC [Example 113, Methyl ((6-(2,2′-dichloro-3′-(4-oxo-3-(((((S)-5-oxopyrrolidin-2-yl)methyl)amino)methyl)-4H-pyrido[1,2-a]pyrimidin-8-yl)-[1,1′-biphenyl]-3-yl)-2-methoxypyridin-3-yl)methyl)-L-serinate] | 54 |
| COc1nc(-c2cccc(-c3cccc(-c4ccn5c(=O)c(CN[C@H]6C[C@@](C)(O)C6)c(C)nc5c4)c3Cl)c2Cl)ccc1CN[C@H]1C[C@@](C)(O)C1 [Example 230, 8-(2,2′-Dichloro-3′-(5-((((1s,3s)-3-hydroxy-3-methylcyclobutyl)amino)methyl)-6-methoxypyridin-2-yl)-[1,1′-biphenyl]-3-yl)-3-((((1s,3s)-3-hydroxy-3-methylcyclobutyl)amino)methyl)-2-methyl-4H-pyrido[1,2-a]pyrimidin-4-one] | 98 |
